Experimental findings from patent publication EP4335452A1, “PHARMACEUTICAL COMPOSITION FOR ENHANCING ANTICANCER EFFECT OF ANTICANCER DRUG” (L-Base Co., Ltd., priority 2021, dated 2024) are described below.

Test [1] concerns breast cancer cell line HCC1937. Briefly: MTT assay, cell viability, breast cancer cell line HCC1937. The conditions noted are these: Olaparib 2.5 µM alone, 24 hours, FIG. 4B. It is filed as cell-based. For orientation: Tetrazolium dyes change colour on reduction, which living cells bring about.
For test [2], the system named is lung cancer cell line H1975. Briefly: MTT assay, cell viability, lung cancer cell line H1975. The class given is cell-based. The conditions noted are these: 48 hours.
The test system of the next test is H1975/OR. The test is described as follows: MTT assay, cell viability, H1975/OR. The class given is cell-based. The conditions noted are these: Osimertinib 2.5 µM alone, 68 hours, FIG. 1G. The procedure: (§1) Specifically, cells were seeded at 2 × 10^3/100 µl per well on a 96-well plate, and after culturing for 24 hours, the compound according to the present invention was administered; 4 hours later, anticancer drugs were treated to each cancer cell. The treatment concentration and treatment time of the compound and anticancer drug are specifically described in the embodiment. After completing the treatment of the compound and anticancer drug, CellTiter-96® reagent (Promega Co., USA) was reacted at 5% CO2, 37°C after adding 10 µl per well. After 3 hours, absorbance was measured at 490 nm using a spectrophotometer (SPECTROstar^Nano, BMG).

Test [3] concerns H820 lung cancer cell line. Briefly: Heterotransplant lung cancer animal model (H820), tumor growth. It is filed as in vivo. The conditions noted are these: H820 nude mice; Osimertinib single administration, 2.5 mpk orally daily; FIG. 6A. The procedure: The test substances were administered intravenously and orally 7 times at 2-day intervals.
Nude mice transplanted with H820 lung cancer cell line, an animal model of lung cancer described in the "Experimental Materials and Methods," was treated 7 times at a two-day interval for 14 days with 3-PhPh-[…] at a dose of 10 mpk, and Osimertinib was orally administered daily at 2.5 mpk. Then, the growth of the tumor was compared.

Another test has as its system H1975 cell line. The test is described as follows: Heterotransplant lung cancer resistance animal model (H1975), tumor growth after Osimertinib resistance. The class given is in vivo, Balb/C nude mice.
The test system of test [4] is lung cancer cell line H1975. Briefly: MTT assay, cell viability, lung cancer cell line H1975. It is filed as cell-based. The conditions noted are these: Ac-AQTGTGKT 10 µM alone, 48 hours, FIG. 1C. As for the experimental part: as §1

Ends that are not written are not given here.

Description for H1975 cell line: H1975 cells were mixed with matrigel in a 1:1 ratio at a concentration of 5 × 10^6 cells/mouse, and each was subcutaneously inoculated at 200µl into the flank of the mouse once. After the inoculation, it was confirmed that the volume of the formed tumor reached 70~130 mm^3, and then random grouping was carried out. After the grouping, Osimertinib was administered orally every day, and after the growth of the tumor was inhibited, the point of re-growth was identified and the co-administration with the test substance was started. The test substances were administered intravenously 7 times at 2-day intervals.
After inoculating the H1975 cell line in 4-week-old female Balb/C nude mice, the presence and growth of the tumor were observed and the short and long axes of the tumor were measured to calculate the volume. When the volume of the tumor reached 70-120 mm^3, the groups were randomly separated and PBS, the negative control group, and Osimertinib at 5 mpk were orally administered daily.
The first day of administration was set as day 1, and the volume of the tumor was measured twice a week.

For the compound `O=C(c1cc(Cc2n[nH]c(=O)c3ccccc23)ccc1F)N1CCN(C(=O)C2CC2)CC1` [Olaparib], the “decrease in cell viability compared to the control group” value in test [1] is given as “no decrease in cell viability”.
As to `Nc1nc2[nH]cc(CCc3ccc(C(=O)N[C@@H](CCC(=O)O)C(=O)O)cc3)c2c(=O)[nH]1` [Alimta, Alimta (Pemetrexed)], in test [2] (Alimta 0.2 µM alone, FIG. 1E), the “cell viability decreased compared to the control group” value (shortened to “cell viability decreased”) is given as “about 6%”.
Regarding `C=CC(=O)Nc1cc(Nc2nccc(-c3cn(C)c4ccccc34)n2)c(OC)cc1N(C)CCN(C)C` [Osimertinib], the “cell viability decreased” value in test [2] (Osimertinib 1 µM alone, FIG. 1B) is “about 5%”; in the test with H1975/OR it was “about 7%”. Besides, in test [3], the “tumor growth reduced compared to the control group (PBS administered group)” value was found to be 46%. The “size of the tumor on the day of termination of administration (average)” value with H1975 cell line (H1975, after Osimertinib resistance, Osimertinib 5 mpk orally daily + PBS intravenously at a two-day interval, FIG. 6B) is 692.6 mm^3. Moreover, in the test on H1975 cell line (H1975 Balb/C nude mice, Osimertinib 5 mpk orally daily, regrowth from the 24th day, judged as acquired resistance), the “tumor viability rate (tumor size on the 28th day versus the last measured tumor size)” value is “over 50%”.
Consider Ac-AQTGTGKT, for which the “cell viability decreased” value in test [4] is on record as “about 14%”.
